pKi: −log10 of the molar value.
How the values were obtained:
[1] = Effect of food on absorption; assay type: in vivo, human; details: oral tablet
Protocol: Participants will receive Compound 1 at the appropriate dose for their cohort as a single daily dose for 10 days at approximately 8 am. Tablets will be taken orally with 240 mL of water.

corticosterone [2] = assay: ACTH excess model: rats given exogenous ACTH (1-24) via subcutaneous osmotic pump over 7 days; assay type: in vivo, rat; details: ACTH (1-24) osmotic pump, daily oral doses
Protocol: (§1) Disease models mimicking states of ACTH excess and hypercortisolism included rats administered exogenous ACTH (1-24) via subcutaneous osmotic pump over 7 days and mice implanted with ACTH-secreting corticotroph AtT-20 tumor cells; animals received daily oral doses of placebo or Compound 1. […] However, six days after discontinuation of the highest dose of Compound 1 (75 mg/kg for 15 days), Ang-II stimulated aldosterone was suppressed, but sodium and potassium levels were normal.

[3] = Previous study in healthy volunteers; assay type: in vivo, human
Description: It has therefore been identified as an AESI in this study and may lead to dose limiting toxicity.

[4] = test system: corticosterone secretion after ACTH (1-24); assay: ACTH (1-24) challenge, corticosterone secretion in rats; assay type: in vivo, rat
[5] = Repeat dose general toxicity study in dog; assay type: in vivo
Protocol: (§2) The overall nonclinical safety of Compound 1 was assessed in 28-day and 3-month repeat dose general toxicity studies in rat and dog and in a battery of in vitro and in vivo genotoxicity and safety pharmacology studies.

aldosterone = assay: ACTH- and Angiotensin-II-stimulated aldosterone in vivo
Protocol: as §1

5-HT1B receptor = 5-HT1B receptor (Homo sapiens, UniProt P28222); assay: Screen for potential off-target activities; assay type: biochemical
[6] = test system: other human melanocortin receptor subtypes; assay: Selectivity over other melanocortin receptor subtypes; assay type: binding; details: MC2R vs other subtypes
[7] = Safety pharmacology studies
Protocol: as §2

MC2R [8] = biological target: T1, MC2R (Homo sapiens, UniProt Q01718); assay: MC2R antagonist affinity / ACTH binding to the receptor
[9] = In vitro metabolism in plasma, liver microsomes and liver S9; assay type: in vitro ADME, various species (including human); details: liver microsomes, liver S9
Description: (§3) In vitro studies evaluated the metabolism of Compound 1 in plasma, liver microsomes, and/or 9000 g supernatant fraction of the liver homogenate (liver S9) from various species (including human).

[10] = In vitro and in vivo genotoxicity studies; details: in vitro and in vivo battery
Protocol: as §2

[11] = Repeat dose general toxicity study in rat; assay type: in vivo
Protocol: as §2

MC2R [12] = biological target: T1, MC2R; assay: ACTH-mediated G-protein activation and cAMP production; assay type: biochemical
corticosterone [13] = assay: ACTH excess model: mice implanted with ACTH-secreting corticotroph AtT-20 tumor cells; assay type: in vivo, mouse; details: mice with AtT-20 tumor cells, daily oral doses
Protocol: as §1

CYP2D6 = CYP2D6 (Homo sapiens, UniProt P10635); assay: CYP involvement in metabolic clearance; assay type: in vitro ADME
Description: as §3

CYP2C8 = biological target: T2, CYP2C8 (Homo sapiens, UniProt P10632); assay: CYP involvement in metabolic clearance; assay type: in vitro ADME
T2 sequence (P10632 1-490): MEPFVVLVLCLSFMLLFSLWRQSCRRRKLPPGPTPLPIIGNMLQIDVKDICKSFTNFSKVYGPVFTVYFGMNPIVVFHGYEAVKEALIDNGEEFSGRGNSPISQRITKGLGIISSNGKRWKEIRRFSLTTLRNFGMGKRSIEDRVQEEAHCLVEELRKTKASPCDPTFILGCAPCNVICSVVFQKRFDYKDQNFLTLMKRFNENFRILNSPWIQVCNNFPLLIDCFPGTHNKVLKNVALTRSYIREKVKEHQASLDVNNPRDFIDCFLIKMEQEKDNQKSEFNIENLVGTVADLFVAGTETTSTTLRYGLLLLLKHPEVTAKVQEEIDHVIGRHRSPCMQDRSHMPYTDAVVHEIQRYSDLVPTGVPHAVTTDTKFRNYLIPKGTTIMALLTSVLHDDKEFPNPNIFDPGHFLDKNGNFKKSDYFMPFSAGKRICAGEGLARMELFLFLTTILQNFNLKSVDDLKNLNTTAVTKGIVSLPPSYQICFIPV
Description: as §3

CYP3A4 = CYP3A4 (Homo sapiens, UniProt P08684); assay: CYP involvement in metabolic clearance; assay type: in vitro ADME
Description: as §3

[14] = six days after discontinuation of 75 mg/kg for 15 days

T1 sequence (Q01718 whole entry): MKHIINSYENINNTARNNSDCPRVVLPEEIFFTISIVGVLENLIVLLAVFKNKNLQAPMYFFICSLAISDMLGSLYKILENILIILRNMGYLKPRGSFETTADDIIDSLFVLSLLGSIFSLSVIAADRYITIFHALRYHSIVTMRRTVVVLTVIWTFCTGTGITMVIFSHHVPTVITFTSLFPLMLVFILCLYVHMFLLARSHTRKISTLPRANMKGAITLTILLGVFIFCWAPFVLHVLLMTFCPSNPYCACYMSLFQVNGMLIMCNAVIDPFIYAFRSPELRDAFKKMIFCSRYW
T1 sequence (Q8TCY5 whole entry partner): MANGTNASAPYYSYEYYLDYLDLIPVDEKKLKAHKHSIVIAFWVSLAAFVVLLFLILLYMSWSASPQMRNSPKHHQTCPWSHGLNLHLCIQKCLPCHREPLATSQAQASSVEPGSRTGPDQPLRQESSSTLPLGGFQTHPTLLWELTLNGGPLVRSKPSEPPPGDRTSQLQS
Sequence of 5-HT1B receptor (P28222 whole entry): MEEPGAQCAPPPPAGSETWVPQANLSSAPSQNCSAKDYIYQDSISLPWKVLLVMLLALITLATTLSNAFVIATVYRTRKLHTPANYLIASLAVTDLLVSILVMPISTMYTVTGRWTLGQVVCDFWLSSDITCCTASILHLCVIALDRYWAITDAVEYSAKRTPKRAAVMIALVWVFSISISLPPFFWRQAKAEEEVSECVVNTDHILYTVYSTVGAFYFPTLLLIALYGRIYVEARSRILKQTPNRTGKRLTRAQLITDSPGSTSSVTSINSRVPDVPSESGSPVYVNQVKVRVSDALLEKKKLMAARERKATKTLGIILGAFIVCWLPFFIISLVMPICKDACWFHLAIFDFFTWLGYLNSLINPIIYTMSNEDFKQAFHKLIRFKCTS
Sequence of CYP3A4 (P08684 whole entry): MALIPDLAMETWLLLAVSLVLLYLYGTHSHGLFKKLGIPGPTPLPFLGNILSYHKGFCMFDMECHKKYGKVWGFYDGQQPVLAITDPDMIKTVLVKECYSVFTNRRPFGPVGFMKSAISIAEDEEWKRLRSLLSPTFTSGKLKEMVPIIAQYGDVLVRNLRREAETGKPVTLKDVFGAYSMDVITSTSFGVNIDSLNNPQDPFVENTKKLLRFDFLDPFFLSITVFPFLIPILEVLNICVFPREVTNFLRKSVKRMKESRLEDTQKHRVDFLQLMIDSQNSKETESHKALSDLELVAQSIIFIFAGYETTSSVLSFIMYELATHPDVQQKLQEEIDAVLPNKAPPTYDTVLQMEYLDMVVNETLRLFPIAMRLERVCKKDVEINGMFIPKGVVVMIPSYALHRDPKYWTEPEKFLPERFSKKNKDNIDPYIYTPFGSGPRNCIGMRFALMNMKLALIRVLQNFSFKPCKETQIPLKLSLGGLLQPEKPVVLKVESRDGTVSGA
Sequence of CYP2D6 (P10635 whole entry): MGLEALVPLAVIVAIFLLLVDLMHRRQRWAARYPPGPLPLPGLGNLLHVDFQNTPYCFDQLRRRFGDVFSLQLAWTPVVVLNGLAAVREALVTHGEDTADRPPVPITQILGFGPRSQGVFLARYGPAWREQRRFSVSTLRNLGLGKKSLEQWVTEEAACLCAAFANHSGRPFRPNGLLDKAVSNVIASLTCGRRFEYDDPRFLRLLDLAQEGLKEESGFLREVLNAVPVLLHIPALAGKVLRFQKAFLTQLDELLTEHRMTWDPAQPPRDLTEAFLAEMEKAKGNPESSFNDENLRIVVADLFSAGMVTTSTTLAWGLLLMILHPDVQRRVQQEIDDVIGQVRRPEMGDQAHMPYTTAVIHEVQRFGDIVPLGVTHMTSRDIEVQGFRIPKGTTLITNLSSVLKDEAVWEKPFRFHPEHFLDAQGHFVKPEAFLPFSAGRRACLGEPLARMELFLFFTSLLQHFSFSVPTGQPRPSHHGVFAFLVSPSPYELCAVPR

## CCOc1ccccc1-c1ccc(N2CCN(C(=O)C3(C(F)(F)F)CCC3)C[C@H]2CC)c(C(=O)N[C@@H]2CN3CCC2CC3)n1 [Compound 1, 6-(2-ethoxyphenyl)-3-((R)-2-ethyl-4-(1-(trifluoromethyl)cyclobutane-1-carbonyl)piperazin-1-yl)-N—((S)-quinuclidin-3-yl) picolinamide]
[1]
  effect of food on absorption: minimal effect of food on absorption
Corticosterone [2]
  adrenal gland effect: dose-dependent adrenal gland atrophy
  decrease of corticosterone values on Days 1 and 7 (maximum): ≤ 92%
[3]
  adverse event observed during treatment: Glucocorticoid deficiency was observed
[4]; oral, 3 and 10 mg/kg, male and female rats
  corticosterone secretion after 1 μg/kg ACTH (1-24): dose-dependently suppressed
[4]; single dose, time course
  corticosterone after ACTH administration at 1, 4, 24, and 48 hours after a single dose: dose-dependent suppression of corticosterone at 1 and 4 hours only
[5]; 3-month dog study
  target organ toxicity finding: adrenal and liver atrophy
[5]; dog
  adrenal gland and liver findings with hydrocortisone supplementation: mitigated with hydrocortisone supplementation
aldosterone; during treatment
  Angiotensin-II stimulation of aldosterone: did not affect
aldosterone; in vivo
  ACTH-stimulated aldosterone levels: reduced
aldosterone; [14]
  Ang-II stimulated aldosterone after discontinuation: suppressed
  sodium and potassium levels after discontinuation: normal
5-HT1B receptor
  selectivity for hMC2R over 5-HT1B: more than 2200 fold
5-HT1B receptor; off-target screen
  agonist activity against the 5-HT1B receptor: no agonist activity
  antagonist activity against the 5-HT1B receptor: weak antagonist
[6]
  selectivity over other human melanocortin receptor subtypes: > 2900 fold
[7]
  adverse effects on core organ systems (cardiovascular, central nervous, respiratory): No findings
MC2R [8]
  ACTH binding to the receptor: potently blocked
  pKi: > 8.00
[9]
  primary metabolic pathways involved in metabolic clearance: oxidative metabolism, resulting in formation of hydroxylated and desmethyl metabolites
[10]
  genotoxic risk: No findings indicating significant genotoxic risk
[11]; 28-day rat study
  target organ toxicity finding: foamy macrophages in the lungs
[11]; rat lung
  consistency of rat lung findings with drug-induced PLD: not to be consistent with drug-induced PLD
MC2R [12]
  ACTH-mediated G-protein activation and subsequent cAMP production: potently blocked
Corticosterone [13]
  adrenal gland effect: dose-dependent adrenal gland atrophy
  decrease of corticosterone values on Days 1 and 7 (maximum): ≤ 92%
CYP2D6
  role of CYP2D6 in catalyzing oxidative metabolism: may also have a minor contribution
CYP2C8
  role of CYP2C8 in catalyzing oxidative metabolism: may also have a minor contribution
CYP3A4
  role of CYP3A4 in catalyzing oxidative metabolism: plays a key role

Reference: patent US20260232657A1, “MELANOCORTIN SUBTYPE-2 RECEPTOR (MC2R) ANTAGONIST FOR THE TREATMENT OF ACTH-DEPENDENT CUSHING'S SYNDROME” (CRINETICS PHARMACEUTICALS, INC., priority 2023, published 2026)
